According to article PMC7237647, “Synthesis, in vitro and in vivo evaluation of ^11C-O-methylated arylpiperazines as potential serotonin 1A (5-HT1A) receptor antagonist radiotracers” (EJNMMI Radiopharmacy and Chemistry, 2020):
Values belong to the compound of their own block, whether it stands above or below them.

Experiments:
D3 = target: D3; set-up: method as in Yasuno et al. [2006]; settings: ref Yasuno et al. [2006]; cited from earlier work
5-HT1A receptors = target: 5-HT1A receptors; set-up: method as in Yasuno et al. [2006]; settings: ref Yasuno et al. [2006]; cited from earlier work
5-HT2B receptors = target: 5-HT2B receptors; set-up: method as in Yasuno et al. [2006]; settings: ref Yasuno et al. [2006]; cited from earlier work
[1] = target: alpha-1 (α1) adrenergic receptors; set-up: method as in Yasuno et al. [2006]; settings: ref Yasuno et al. [2006]; cited from earlier work
D4 = target: D4; set-up: method as in Yasuno et al. [2006]; settings: ref Yasuno et al. [2006]; cited from earlier work
D2 = target: D2; set-up: method as in Yasuno et al. [2006]; settings: ref Yasuno et al. [2006]; cited from earlier work
5-HT1B = target: T1, 5-HT1B (Homo sapiens, UniProt P28222); test: NIMH-PDSP radioligand binding assay, 5-HT1B
T1 construct: NIMH-PDSP
T1 sequence (P28222 whole entry, species assumed): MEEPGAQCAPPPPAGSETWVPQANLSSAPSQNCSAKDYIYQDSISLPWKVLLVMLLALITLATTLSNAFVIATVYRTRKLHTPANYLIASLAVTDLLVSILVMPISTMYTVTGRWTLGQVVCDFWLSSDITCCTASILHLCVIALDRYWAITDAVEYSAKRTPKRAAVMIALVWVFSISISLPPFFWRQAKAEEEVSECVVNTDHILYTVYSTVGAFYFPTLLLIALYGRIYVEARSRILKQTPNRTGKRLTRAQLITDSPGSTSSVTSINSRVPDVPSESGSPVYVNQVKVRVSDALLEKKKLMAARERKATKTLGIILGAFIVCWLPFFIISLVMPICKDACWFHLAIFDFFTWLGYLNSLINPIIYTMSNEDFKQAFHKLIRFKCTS
Protocol: (§1) . Cross selectivity for biogenic amines, neurotransmitter receptors, and transporters were determined by radioligand binding assays through NIMH- PDSP using validated and established protocols ([NIMH-PDSP Assay Protocol Book Version III, March 2018]).

5-HT1D = target: T2, 5-HT1D (Homo sapiens, UniProt P28221); test: NIMH-PDSP radioligand binding assay, 5-HT1D
T2 construct: NIMH-PDSP
T2 sequence (P28221 whole entry, species assumed): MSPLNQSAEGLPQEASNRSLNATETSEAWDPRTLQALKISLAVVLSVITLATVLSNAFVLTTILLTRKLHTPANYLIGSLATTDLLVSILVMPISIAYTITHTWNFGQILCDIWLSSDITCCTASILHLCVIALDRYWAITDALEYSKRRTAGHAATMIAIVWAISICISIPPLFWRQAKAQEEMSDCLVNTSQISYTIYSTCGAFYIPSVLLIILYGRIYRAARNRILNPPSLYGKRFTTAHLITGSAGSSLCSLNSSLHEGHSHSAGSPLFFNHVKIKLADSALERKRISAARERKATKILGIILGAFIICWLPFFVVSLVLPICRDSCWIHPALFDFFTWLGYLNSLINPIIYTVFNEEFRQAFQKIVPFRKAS
Protocol: as §1

NET = NET (Homo sapiens, UniProt P23975); test: NIMH-PDSP radioligand binding assay, NET
NET, sequence (P23975 whole entry): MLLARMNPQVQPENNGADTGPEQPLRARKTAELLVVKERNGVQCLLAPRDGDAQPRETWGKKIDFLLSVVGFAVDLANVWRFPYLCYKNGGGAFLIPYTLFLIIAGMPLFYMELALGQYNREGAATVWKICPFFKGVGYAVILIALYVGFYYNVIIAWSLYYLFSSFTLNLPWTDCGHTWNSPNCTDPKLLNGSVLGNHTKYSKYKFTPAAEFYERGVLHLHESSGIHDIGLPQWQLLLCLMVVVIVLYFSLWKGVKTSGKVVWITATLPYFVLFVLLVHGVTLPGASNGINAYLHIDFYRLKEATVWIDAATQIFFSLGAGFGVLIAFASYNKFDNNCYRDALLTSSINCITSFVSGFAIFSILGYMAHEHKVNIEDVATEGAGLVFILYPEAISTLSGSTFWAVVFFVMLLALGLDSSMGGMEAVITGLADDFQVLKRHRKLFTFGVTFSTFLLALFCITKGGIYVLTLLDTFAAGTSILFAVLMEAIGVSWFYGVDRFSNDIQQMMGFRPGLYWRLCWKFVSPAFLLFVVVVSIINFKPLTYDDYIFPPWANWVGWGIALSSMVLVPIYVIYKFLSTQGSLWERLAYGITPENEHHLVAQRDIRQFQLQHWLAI
Protocol: as §1

5-HT3 = target: T3, 5-HT3 (Homo sapiens, UniProt P46098); test: NIMH-PDSP radioligand binding assay, 5-HT3
T3 construct: NIMH-PDSP
T3 sequence (P46098 24-478): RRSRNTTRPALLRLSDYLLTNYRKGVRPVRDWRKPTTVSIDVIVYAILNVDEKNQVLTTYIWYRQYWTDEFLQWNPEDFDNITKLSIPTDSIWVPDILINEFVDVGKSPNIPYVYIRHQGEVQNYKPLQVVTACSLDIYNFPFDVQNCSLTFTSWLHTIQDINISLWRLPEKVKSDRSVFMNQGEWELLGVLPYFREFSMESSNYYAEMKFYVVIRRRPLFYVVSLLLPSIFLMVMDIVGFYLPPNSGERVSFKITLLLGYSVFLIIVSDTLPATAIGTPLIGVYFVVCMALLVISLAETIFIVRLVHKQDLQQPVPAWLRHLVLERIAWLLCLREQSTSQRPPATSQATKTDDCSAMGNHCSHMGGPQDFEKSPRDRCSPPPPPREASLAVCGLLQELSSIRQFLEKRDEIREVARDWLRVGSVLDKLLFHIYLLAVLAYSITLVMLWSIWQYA
Protocol: as §1

PBR = target: T4, PBR (Rattus norvegicus, UniProt P16257); test: NIMH-PDSP radioligand binding assay, PBR
T4 construct: NIMH-PDSP
Protocol: as §1

Sigma1R = target: T5, Sigma1R (Homo sapiens, UniProt Q99720); test: NIMH-PDSP radioligand binding assay, Sigma1R
T5 construct: NIMH-PDSP
T5 sequence (Q99720 whole entry, species assumed): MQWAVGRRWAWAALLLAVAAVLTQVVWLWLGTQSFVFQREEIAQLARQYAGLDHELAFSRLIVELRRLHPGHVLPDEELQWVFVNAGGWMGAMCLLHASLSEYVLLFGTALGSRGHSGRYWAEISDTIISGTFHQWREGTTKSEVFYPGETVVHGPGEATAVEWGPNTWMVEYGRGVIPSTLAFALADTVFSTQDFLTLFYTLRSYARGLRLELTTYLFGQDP
Protocol: as §1

5-HT2B = target: T6, 5-HT2B (Homo sapiens, UniProt P41595); test: NIMH-PDSP radioligand binding assay, 5-HT2B
T6 construct: NIMH-PDSP
T6 sequence (P41595 whole entry, species assumed): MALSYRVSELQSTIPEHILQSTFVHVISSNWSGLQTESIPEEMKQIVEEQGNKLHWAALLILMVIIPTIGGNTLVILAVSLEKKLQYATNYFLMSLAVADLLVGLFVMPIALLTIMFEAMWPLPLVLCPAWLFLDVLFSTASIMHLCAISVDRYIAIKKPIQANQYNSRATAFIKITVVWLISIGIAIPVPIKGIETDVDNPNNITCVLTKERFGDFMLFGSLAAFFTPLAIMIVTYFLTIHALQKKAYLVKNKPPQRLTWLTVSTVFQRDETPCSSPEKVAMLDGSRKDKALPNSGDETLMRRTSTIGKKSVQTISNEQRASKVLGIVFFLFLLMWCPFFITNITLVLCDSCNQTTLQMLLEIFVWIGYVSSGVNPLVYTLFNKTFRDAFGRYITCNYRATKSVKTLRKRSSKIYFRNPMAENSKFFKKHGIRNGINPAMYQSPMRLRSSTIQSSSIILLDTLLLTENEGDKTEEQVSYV
Protocol: as §1

5-HT5a = target: T7, 5-HT5a (Homo sapiens, UniProt P47898); test: NIMH-PDSP radioligand binding assay, 5-HT5a
T7 construct: NIMH-PDSP
T7 sequence (P47898 whole entry, species assumed): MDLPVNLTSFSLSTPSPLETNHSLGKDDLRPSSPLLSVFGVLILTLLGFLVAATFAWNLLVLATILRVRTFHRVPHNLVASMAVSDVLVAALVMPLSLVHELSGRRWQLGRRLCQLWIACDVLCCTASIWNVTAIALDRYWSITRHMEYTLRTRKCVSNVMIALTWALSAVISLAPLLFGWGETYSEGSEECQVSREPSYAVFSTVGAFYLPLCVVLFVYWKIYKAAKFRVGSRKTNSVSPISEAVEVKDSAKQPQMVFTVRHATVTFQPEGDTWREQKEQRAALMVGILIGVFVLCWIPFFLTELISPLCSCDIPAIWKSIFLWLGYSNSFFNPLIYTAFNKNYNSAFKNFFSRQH
Protocol: as §1

SERT = SERT (Homo sapiens, UniProt P31645); test: NIMH-PDSP radioligand binding assay, SERT
Protocol: as §1

D3R = target: T8, D3R (Homo sapiens, UniProt P35462); test: NIMH-PDSP radioligand binding assay, D3R
T8 construct: NIMH-PDSP
T8 sequence (P35462 whole entry): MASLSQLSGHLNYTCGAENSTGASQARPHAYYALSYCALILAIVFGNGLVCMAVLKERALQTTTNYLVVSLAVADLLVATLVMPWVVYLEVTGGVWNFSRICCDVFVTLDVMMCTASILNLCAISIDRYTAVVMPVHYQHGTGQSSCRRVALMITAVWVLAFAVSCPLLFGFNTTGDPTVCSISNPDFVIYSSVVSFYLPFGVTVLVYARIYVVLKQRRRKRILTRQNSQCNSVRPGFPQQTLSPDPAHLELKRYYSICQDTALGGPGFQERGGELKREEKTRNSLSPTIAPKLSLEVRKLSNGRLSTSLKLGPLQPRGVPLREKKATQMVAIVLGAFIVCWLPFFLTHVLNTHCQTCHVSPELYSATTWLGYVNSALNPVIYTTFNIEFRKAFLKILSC
Protocol: as §1

DAT = DAT (Homo sapiens, UniProt Q01959); test: NIMH-PDSP radioligand binding assay, DAT
DAT, sequence (Q01959 whole entry, species assumed): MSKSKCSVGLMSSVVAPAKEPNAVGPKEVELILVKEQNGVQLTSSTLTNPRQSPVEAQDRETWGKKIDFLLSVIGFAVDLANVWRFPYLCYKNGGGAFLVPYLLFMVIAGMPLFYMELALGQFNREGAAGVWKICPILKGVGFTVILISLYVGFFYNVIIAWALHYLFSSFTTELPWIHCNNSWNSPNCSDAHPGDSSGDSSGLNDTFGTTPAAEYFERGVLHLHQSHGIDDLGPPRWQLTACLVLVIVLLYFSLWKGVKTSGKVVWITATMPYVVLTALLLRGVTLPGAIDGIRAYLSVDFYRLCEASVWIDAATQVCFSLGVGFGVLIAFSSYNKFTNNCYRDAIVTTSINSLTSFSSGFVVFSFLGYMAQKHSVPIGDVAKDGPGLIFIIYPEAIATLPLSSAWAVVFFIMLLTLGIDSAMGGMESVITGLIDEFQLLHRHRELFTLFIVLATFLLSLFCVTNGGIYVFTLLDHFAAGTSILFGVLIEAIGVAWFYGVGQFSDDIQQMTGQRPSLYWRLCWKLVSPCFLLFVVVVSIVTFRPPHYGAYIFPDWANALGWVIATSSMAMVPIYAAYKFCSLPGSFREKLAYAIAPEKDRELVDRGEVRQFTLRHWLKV
Protocol: as §1

5-HT4 = target: T9, 5-HT4 (Homo sapiens, UniProt Q13639); test: NIMH-PDSP radioligand binding assay, 5-HT4
T9 construct: NIMH-PDSP
Protocol: as §1

5-HT1E = target: T10, 5-HT1E (Homo sapiens, UniProt P28566); test: NIMH-PDSP radioligand binding assay, 5-HT1E
T10 construct: NIMH-PDSP
T10 sequence (P28566 whole entry, species assumed): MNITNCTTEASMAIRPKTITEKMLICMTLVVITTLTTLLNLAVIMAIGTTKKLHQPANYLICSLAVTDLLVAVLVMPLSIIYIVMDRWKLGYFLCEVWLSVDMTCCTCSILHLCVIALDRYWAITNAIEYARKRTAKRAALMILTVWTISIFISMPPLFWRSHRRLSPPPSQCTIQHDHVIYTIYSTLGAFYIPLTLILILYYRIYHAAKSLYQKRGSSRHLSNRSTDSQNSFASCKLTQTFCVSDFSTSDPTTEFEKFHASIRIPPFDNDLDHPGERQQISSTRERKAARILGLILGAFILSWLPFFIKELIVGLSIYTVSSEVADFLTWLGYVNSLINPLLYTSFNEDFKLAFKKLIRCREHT
Protocol: as §1

5-HT6 = target: T11, 5-HT6 (Homo sapiens, UniProt P50406); test: NIMH-PDSP radioligand binding assay, 5-HT6
T11 construct: NIMH-PDSP
T11 sequence (P50406 whole entry, species assumed): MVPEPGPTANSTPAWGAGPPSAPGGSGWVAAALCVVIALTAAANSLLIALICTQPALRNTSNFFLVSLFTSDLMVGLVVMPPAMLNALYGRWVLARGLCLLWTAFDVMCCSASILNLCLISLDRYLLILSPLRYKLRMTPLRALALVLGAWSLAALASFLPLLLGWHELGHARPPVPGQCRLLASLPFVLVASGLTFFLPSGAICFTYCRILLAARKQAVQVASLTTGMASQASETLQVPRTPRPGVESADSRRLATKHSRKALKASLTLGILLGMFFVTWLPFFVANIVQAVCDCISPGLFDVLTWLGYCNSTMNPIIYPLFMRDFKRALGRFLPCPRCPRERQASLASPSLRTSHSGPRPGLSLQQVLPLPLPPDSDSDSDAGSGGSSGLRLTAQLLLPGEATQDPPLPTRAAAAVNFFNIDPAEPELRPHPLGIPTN
Protocol: as §1

NOP = target: T12, NOP (Homo sapiens, UniProt P41146); test: NIMH-PDSP radioligand binding assay, NOP
T12 construct: NIMH-PDSP
T12 sequence (P41146 whole entry): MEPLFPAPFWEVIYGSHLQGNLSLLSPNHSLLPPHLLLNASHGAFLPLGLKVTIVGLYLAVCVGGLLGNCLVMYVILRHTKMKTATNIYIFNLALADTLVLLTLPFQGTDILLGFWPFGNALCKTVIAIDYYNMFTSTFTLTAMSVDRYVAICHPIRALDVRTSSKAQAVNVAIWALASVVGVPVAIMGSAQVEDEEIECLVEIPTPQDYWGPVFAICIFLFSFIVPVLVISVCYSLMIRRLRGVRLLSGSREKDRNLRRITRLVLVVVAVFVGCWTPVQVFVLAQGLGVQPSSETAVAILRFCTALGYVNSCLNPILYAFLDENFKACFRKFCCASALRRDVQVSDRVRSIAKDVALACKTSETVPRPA
Protocol: as §1

D4R = target: T13, D4R (Homo sapiens, UniProt P21917); test: NIMH-PDSP radioligand binding assay, D4R
T13 construct: NIMH-PDSP
T13 sequence (P21917 1-419): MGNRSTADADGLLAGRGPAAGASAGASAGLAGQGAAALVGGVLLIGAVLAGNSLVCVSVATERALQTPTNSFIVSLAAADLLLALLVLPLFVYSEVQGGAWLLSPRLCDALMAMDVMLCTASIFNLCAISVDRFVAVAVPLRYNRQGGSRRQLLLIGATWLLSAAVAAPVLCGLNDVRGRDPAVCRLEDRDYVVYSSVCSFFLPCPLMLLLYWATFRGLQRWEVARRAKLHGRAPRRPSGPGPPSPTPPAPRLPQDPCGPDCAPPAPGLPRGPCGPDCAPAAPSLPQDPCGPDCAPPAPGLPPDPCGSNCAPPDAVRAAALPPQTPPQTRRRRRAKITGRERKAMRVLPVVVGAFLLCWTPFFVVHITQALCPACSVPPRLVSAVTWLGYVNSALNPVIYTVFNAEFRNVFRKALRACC
Protocol: as §1

[2] = Dynamic PET/MR imaging of brain uptake in rats; format: in vivo; settings: rat; for Brain uptake: dynamic PET, bolus i.v. injection, 60 min scan
Protocol: […]. All experimental procedures were carried out in accordance with the Institutional Animal Care Committee ethical guidelines (Animal Use Protocol # 783).
Adult male Sprague Dawley rats (500–600 g, 8–12 months old) were anesthetized by isoflurane (5% induction; O2 rate: 2 L/min) and catheterized in the lateral tail vein using a Surflash Polyurethane IV Catheter 24G × 3/4″(Terumo; Somerset, New Jersey, US). Following insertion, the catheter was flushed with heparinized saline (30 IU/ml, ~ 200 μl). The animal was transferred to the scanner bed in prone position, the head immobilized in a flat skull position for the duration of the acquisition using built in ear and bite bars; the scanner bed temperature was initially set at 40 °C but was subject to alteration based on animals’ body temperature during the experiment. Anesthesia was maintained throughout the PET/MR scanning procedure (isoflurane: 1.5–2%; O2 rate: 1 L/min) and the animals’ body temperature and respiration parameters were closely monitored.
Imaging studies were conducted on a nanoScan PET/MRI 3 T tomograph (Mediso; Budapest, Hungary). At first, a scout MR was acquired for subsequent PET field of view (FOV) positioning. MR images were used to define anatomical regions of interest (ROIs) through PET/MRI image co-registration. MR sequences included: material map T1-weighted 2D-gradient echo (GRE, TR 354 ms, TE 3.64) multi-FOV sequence for PET and MR co-registration and PET scatter and attenuation corrections, and T2-weighted 2D-fast spin-echo (FSE, TR 3971 ms, TE 87.5 ms) sequence for co-registration with standard rat brain MR template and atlas of Schwarz et al. ([2006]), and PET ROI analyses. MR images were acquired either before or after PET imaging.
[…]. mass injected for [^11C]1–3: 0.15–0.40 nmol/kg), a 60 min emission list mode scan was acquired with an energy window of 400–600 keV.
The acquired list mode data was sorted into 33, 3D (3 × 5 s, 3 × 15 s, 3 × 20s, 7 × 60s and 17 × 180 s) true sinograms (ring difference 84). The 3D sinograms were converted in 2D sinograms using fourier-rebinning (Defrise et al. [1997]), during which corrections were included for detector geometry and efficiencies, attenuation and scatter, prior to image reconstruction using a 2D–filtered back projection (FBKP) with an Hann filter at a cutoff of 0.50 cm-1. A static image of the complete emission acquisition was reconstructed with the manufacturer’s proprietary iterative 3D algorithm (6 subsets, 4 iterations). All image data were corrected for dead-time and decay corrected to the start of acquisition. The dynamic FBKP images were used for the extraction of time-activity curves (TACs). The static iterative image was used for PET and MR co-registration and also for co-registration with standard rat brain MR template and atlas (Schwarz et al. [2006]). Image analyses and extraction of regional brain TACs were performed using Amide software (v1.0.4) (Loening and Gambhir [2003]). Standardized uptake values (SUV) were calculated by normalizing regional radioactivity for injected radioactivity and body weight of the animal. Regional brain BP were obtained by using simplified reference tissue model (SRTM) of Lammertsma and Hume ([1996]), with averaged TACs of left and right cerebellum as the reference. […] Percentages of blocking were calculated by the equation: Blocking% = 100 x (BPblocking – BPbaseline)/BPbaseline.

α1-adrenergic receptors [3] = test: PET/MR blocking study with prazosin pre-treatment; format: in vivo, Sprague Dawley rats; settings: prazosin 2 mg/kg IV 20 min prior to tracer, rat
Protocol: 5-HT1A receptor selectivity of the radiotracer with the most promising brain penetrating properties was further investigated in two separate baseline and pre-treatment (blocking) experiments. A within-subject PET/MR imaging design was employed for baseline and blocking experiments. In the first PET/MR imaging session, brain radiotracer uptake was determined under baseline conditions whereby radiotracer was intravenously administered simultaneously with the start of PET acquisition. The catheter was flushed with heparinized saline (~ 100 μl) and capped to allow blocker/radiotracer injections for the subsequent pre-treatment experiment. Before the start of the second PET measurement, the animals were infused with a suitable blocking agent intravenously 20 min prior to radiotracer injection and concomitant PET acquisition. To confirm target engagement at 5-HT1A receptor, WAY-100635 maleate (Sigma-Aldrich), a potent 5-HT1A receptor antagonist (2 mg/kg) was infused intravenously 20 min before radiotracer injection. In order to further investigate potential off-target binding at α1-adrenergic receptors in vivo, prazosin hydrochloride (Sigma-Aldrich), a potent α1-adrenergic receptor antagonist (2 mg/kg) was infused 20 min before radiotracer injection and PET acquisition.
The acquired list mode data was sorted into 33, 3D (3 × 5 s, 3 × 15 s, 3 × 20s, 7 × 60s and 17 × 180 s) true sinograms (ring difference 84). The 3D sinograms were converted in 2D sinograms using fourier-rebinning (Defrise et al. [1997]), during which corrections were included for detector geometry and efficiencies, attenuation and scatter, prior to image reconstruction using a 2D–filtered back projection (FBKP) with an Hann filter at a cutoff of 0.50 cm-1. A static image of the complete emission acquisition was reconstructed with the manufacturer’s proprietary iterative 3D algorithm (6 subsets, 4 iterations). All image data were corrected for dead-time and decay corrected to the start of acquisition. The dynamic FBKP images were used for the extraction of time-activity curves (TACs). The static iterative image was used for PET and MR co-registration and also for co-registration with standard rat brain MR template and atlas (Schwarz et al. [2006]). Image analyses and extraction of regional brain TACs were performed using Amide software (v1.0.4) (Loening and Gambhir [2003]). Standardized uptake values (SUV) were calculated by normalizing regional radioactivity for injected radioactivity and body weight of the animal. Regional brain BP were obtained by using simplified reference tissue model (SRTM) of Lammertsma and Hume ([1996]), with averaged TACs of left and right cerebellum as the reference. This was performed by using the basis function method (BFM) of Gunn et al. ([1997]) in the package of Turku PET Centre (https://gitlab.utu.fi/vesoik/tpcclib) (Gunn et al. [1997]). Percentages of blocking were calculated by the equation: Blocking% = 100 x (BPblocking – BPbaseline)/BPbaseline.

α1-adrenergic receptors [4] = target: α1-adrenergic receptors; set-up: method as in Chemel et al. [2006]; settings: ref Chemel et al. [2006]; cited from earlier work

SMILES: COc1ccccc1N1CCN(CCC(C(=O)N2CCCCCC2)c2ccccc2)CC1 (stereo in doubt) [[^11C](R)-RWAY]
Ki (D3): 5.1 nM
Ki (5-HT1A receptors): 0.6 nM
Ki (5-HT2B receptors): 7.2 nM
Ki [1]: 10.3 nM
Ki (D4): 15.6 nM
Ki (D2): 34.5 nM

melting point: 112 to 113 °C
SMILES: O=C(NCCN1CCN(c2ccccc2O)CC1)c1ccccn1 [10a, N-(2-(4-(2-hydroxyphenyl)piperazin-1-yl)ethyl)picolinamide]

melting point: 105 to 106 °C
SMILES: O=C(NCCN1CCN(c2ccccc2O)CC1)c1ccncc1 [10b, N-(2-(4-(2-hydroxyphenyl)piperazin-1-yl)ethyl)isonicotinamide]

Ki (5-HT1B): > 10000 nM
Ki (5-HT1D): 1180 nM
Ki (NET): > 10000 nM
Ki (5-HT3): > 10000 nM
Ki (PBR): > 10000 nM
Ki (Sigma1R): > 10000 nM
Ki (5-HT2B): 137 nM
Ki (5-HT5a): 1810 nM
Ki (SERT): > 10000 nM
Ki (D3R): 133 nM
Ki (DAT): > 10000 nM
Ki (5-HT4): > 10000 nM
Ki (5-HT1E): > 10000 nM
Ki (5-HT6): > 10000 nM
Ki (NOP): > 10000 nM
Ki (D4R): 153 nM
SMILES: COc1ccccc1N1CCN(CCNC(=O)c2ccncc2)CC1 [Compound 3]

SMILES: [11CH3]Oc1ccccc1N1CCN(CCCN/C(=N\C#N)c2ccccn2)CC1 [[^11C]1]
Brain uptake [2]: negligible

SMILES: [11CH3]Oc1ccccc1N1CCN(CCNC(=O)c2ccccn2)CC1 [[^11C]2]
Brain uptake [2]: negligible

SMILES: [11CH3]Oc1ccccc1N1CCN(CCNC(=O)c2ccncc2)CC1 [[^11C]3]
early peak SUV in brain ([2]; male, Sprague Dawley, in vivo): 4–5
time of early peak SUV following radiotracer injection ([2]; male, Sprague Dawley, in vivo): ~ 1 min
washout from brain ([2]; in vivo): fast
decrease of whole brain BP (α1-adrenergic receptors [3]; SRTM, cerebellum reference): 63%
decrease of BP in anterior cingulate cortex (α1-adrenergic receptors [3]): 69%
decrease of BP in hippocampus (α1-adrenergic receptors [3]): 56%
decrease of BP in striatum (α1-adrenergic receptors [3]): 34%
decrease of BP in thalamus (α1-adrenergic receptors [3]): 73%
decrease of binding in the saliva gland (α1-adrenergic receptors [3]): 68%

SMILES: COc1ccccc1N1CCN(CCN(C(=O)C2CCCCC2)c2ccccn2)CC1 [[carbonyl-^11C]WAY100635]
Ki (α1-adrenergic receptors [4]): 16.4 nM

melting point: 137 to 138 °C
SMILES: N#CN=C(NCCCN1CCN(c2ccccc2O)CC1)c1ccccn1 [compound 7, N'-Cyano-N-(3-(4-(2-hydroxyphenyl)piperazin-1-yl)propyl)picolinamidine]
